This experiment deals with HSP 70. Kind of experiment: Production of stress protein HSP 70 (RNAm by RT-PCR, band intensity vs β-actine) in cutaneous cell cultures. In kind it is cell-based, human. Particulars: tested at 1.5 g/l. How it is done:
1st test with thermal treatment:
At J0, cutaneous cells, fibroblasts and/or keratinocytes are seeded.
At J4, 3% of active principle was added and after an incubation of 30 minutes thermal treatment is carried out for 1 hour at 39° C.
The positive specimen is treated for 1 hour at 44° C.
The total RNA is extracted. The RNA is reverse-transcripted and the complementary DNA is analyzed by using complementary oligonucleotides of a sequence coding the genes and proteins studied.
The RNAm of β-actine is analyzed for each experimental condition.
By image analysis, using for example the system sold under the name BIO-PROFIL, the band intensities are determined.
2nd test without thermal treatment:
At J3, 3% of active principle is added and left to incubate for 24 hours at 37° C.
At J4, at the end of this incubation, the cells are recovered.
The total RNA is extracted. The RNA is reverse-transcripted and the complementary DNA is analyzed by using complementary oligonucleotides of a sequence coding the genes and proteins used. The RNAm of p-actine is analyzed for each experimental condition.
Similarly to the above, by image analysis, the intensities of the bands are determined. […]
The results of the thermal treatments of the standard are indicated in the table in FIG. 1, taking as 100% the quantity of RNAm of HSP 70 after incubation at 37° C. of a standard specimen

Molecules are shown by their SMILES.

For the molecule `OCCc1ccc(O)c(O)c1` [Dihydroxytyrosol], the “effect on the synthesis of HSP 70 on fibroblasts, result in words” value is given as “very active”. Take `C/C=C1/[C@H](O[C@@H]2O[C@H](CO)[C@@H](O)[C@H](O)[C@H]2O)OC=C(C(=O)OC)[C@H]1CC(=O)OCCc1ccc(O)c(O)c1` [Oleuropeine]: the “effect on the synthesis of HSP 70 on fibroblasts, result in words” value was “very active”.

Source of the values: patent publication US20020054927A1, “Process for the extraction of an active principle from leaves of Olea Europaea to promote the synthesis of stress proteins, obtained active principle” (priority 2000, published 2002).
